Assay results taken from patent US20220177538A1, “CO-AGONISTS AT GLP-1 AND GIP RECEPTORS SUITABLE FOR ORAL DELIVERY” (Novo Nordisk A/S, priority 2020, published 2022).
Read-outs that look alike come from different tables or passages of the source. Starred links: 1 amine or outer side, 2 acyl side, 3 side chain; linkers in the order of their positions; H or OH if unused. Non-standard residues stand in square brackets, D forms with d. Residues, ends and D or L forms follow the SMILES beside them. Groups on a side chain read outwards from the residue. *: point of attachment. C18 diacid = O=C(O)CCCCCCCCCCCCCCCCC(=O)*; C16 diacid = O=C(O)CCCCCCCCCCCCCCC(=O)*; γGlu = O=C(O)[C@H](CCC(=O)[*:2])N[*:1]; εLys = N[C@@H](CCCCN[*:1])C(=O)[*:2]; Aib = CC(C)(N)C(=O)O

Key:
human GLP-1 receptor = human GLP-1 receptor (Homo sapiens, UniProt P43220); experiment: In vitro functional potency, CRE luciferase reporter, whole BHK cells (hGLP-1R); assay type: cell-based; parameters: expressed in transfected cells; host or cells: BHK (parent line BHKTS13), clone BHK CRE luc2P hGLP-1R; details: BHK CRE luc2P hGLP-1R cells
Description: (§1) The in vitro functional potency is the measure of target receptor activation in a whole cell assay.
(§2) In vitro functional potency was determined by measuring the response of the target receptor in a reporter gene assay in individual cell lines. […] When the respective receptor is activated, it results in the production of cAMP, which in turn results in expression of the luciferase protein. When assay incubation is completed, luciferase substrate (luciferin) is added resulting in the enzymatic conversion of luciferin to oxyluciferin and producing bioluminescence. The luminescence is measured as the readout for the assay.
(§3) The cells lines used in these assays were BHK cells with BHKTS13 as a parent cell line. The cell lines were derived from a clone containing the CRE luciferase element and were established by further transfection with the respective human receptor to obtain the relevant cell line: BHK CRE luc2P hGLP-1R or BHK CRE luc2P hGIPR. The cells were cultured at 37° C. with 5% CO2 in Cell Culture Medium. They were aliquoted and stored in liquid nitrogen. The cells were kept in continuous culture and were seeded out the day before each assay.
(§4) GLP-1R Cell Culture Medium consisted of DMEM medium with 10% FBS, 500 µg/mL G418, and 300 µg/mL hygromycin. GIPR Cell Culture Medium consisted of DMEM medium with 10% FBS, 400 µg/mL G418, and 300 µg/mL hygromycin. Assay Buffer consisted of DMEM w/o phenol red, 10 mM Hepes, 1× Glutamax. 1% ovalbumin, and 0.1% Pluronic F-68 with the addition of HSA at twice the final assay concentration.
(§5) 1) Cells were plated at 5000 cells/well and incubated overnight in the assay plate. 2) Cells were washed once in DPBS. 3) Stocks of the test compounds and reference compounds in concentrations ranging from […] were diluted 1:150 in Assay Buffer. Compounds were then diluted 1:10 in column 1 of a 96 deep well dilution plate and then carried across the row creating a 3.5 fold, 12 point dilution curve. 4) Assay Buffer (50 μl aliquot) with or without HSA was added to each well in the assay plate. 5) A 50 μl aliquot of compound or blank was transferred from the dilution plate to the assay plate containing the Assay Buffer with or without HSA. 6) The assay plate was incubated for 3 h in a 5% CO2 incubator at 37° C. 7) The cells were washed once with DPBS. 8) A 100 μl aliquot of DPBS was added to each well of the assay plate. 9) A 100 μl aliquot of steadylite plus reagent (light sensitive) was added to each well of the assay plate. 10) Each assay plate was covered with aluminum foil to protect it from light and shaken at 250 RPM for 30 min at room temperature. 11) Each assay plate was read in a microtiter plate reader.
(§6) The data from the microtiter plate reader was first regressed in an Excel in order to calculate the x-axis, log scale concentrations based on the individual test compound's stock concentration and the dilutions of the assay. […] The software performs a non-linear regression (log(agonist) vs response). A minimum of two replicates was measured for each sample. The reported values are averages of the replicates.

human GIP receptor = target: T1, human GIP receptor (Homo sapiens, UniProt P48546); experiment: In vitro functional potency, CRE luciferase reporter, whole BHK cells (hGIPR); assay type: cell-based; details: BHK CRE luc2P hGIPR cells
T1 construct: expressed in transfected cells; host or cells: BHK (parent line BHKTS13), clone BHK CRE luc2P hGIPR
T1 sequence (P48546 22-466): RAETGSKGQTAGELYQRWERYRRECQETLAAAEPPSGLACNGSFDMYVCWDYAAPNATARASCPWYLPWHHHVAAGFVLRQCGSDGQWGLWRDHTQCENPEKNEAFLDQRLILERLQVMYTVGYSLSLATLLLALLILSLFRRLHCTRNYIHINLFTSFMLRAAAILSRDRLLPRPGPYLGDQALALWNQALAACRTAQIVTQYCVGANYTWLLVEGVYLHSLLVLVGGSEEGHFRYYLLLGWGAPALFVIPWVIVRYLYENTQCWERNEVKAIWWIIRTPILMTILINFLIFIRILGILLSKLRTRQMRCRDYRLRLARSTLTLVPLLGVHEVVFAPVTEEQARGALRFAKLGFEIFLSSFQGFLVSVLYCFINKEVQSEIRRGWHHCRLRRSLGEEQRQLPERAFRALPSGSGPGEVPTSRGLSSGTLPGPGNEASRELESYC
Description: as §1, §2, §3, §4, §5, §6

[1] = 0% HSA, read-out: hGLP-1R, CRE Luc 0% HSA EC50
[2] = hGLP-1R, CRE Luc 1% HSA EC50, 1% HSA
[3] = 0% HSA, read-out: hGIPR, CRE Luc 0% HSA EC50
[4] = hGIPR, CRE Luc 1% HSA EC50, 1% HSA

Sequence of human GLP-1 receptor (P43220 24-463): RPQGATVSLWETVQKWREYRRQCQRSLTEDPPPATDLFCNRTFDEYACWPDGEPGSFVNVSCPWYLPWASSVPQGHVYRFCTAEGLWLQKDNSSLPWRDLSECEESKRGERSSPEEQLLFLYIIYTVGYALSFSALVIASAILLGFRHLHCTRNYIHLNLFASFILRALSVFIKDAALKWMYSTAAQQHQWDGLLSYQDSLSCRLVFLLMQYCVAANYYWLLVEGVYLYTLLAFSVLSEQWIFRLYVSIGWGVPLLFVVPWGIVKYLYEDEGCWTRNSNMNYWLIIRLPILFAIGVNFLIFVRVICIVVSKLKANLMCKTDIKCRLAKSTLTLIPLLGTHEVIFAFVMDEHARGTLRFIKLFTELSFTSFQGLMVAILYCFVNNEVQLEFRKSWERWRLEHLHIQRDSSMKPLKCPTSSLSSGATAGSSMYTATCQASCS

Compound	EC50 (human GLP-1 receptor; [1])	EC50 (human GLP-1 receptor; [2])	EC50 (human GIP receptor; [3])	EC50 (human GIP receptor; [4])
CC[C@H](C)[C@H](NC(=O)[C@H](CO)NC(=O)[C@H](Cc1ccc(O)cc1)NC(=O)[C@H](CC(=O)O)NC(=O)[C@H](CO)NC(=O)[C@@H](NC(=O)[C@H](Cc1ccccc1)NC(=O)[C@@H](NC(=O)CNC(=O)[C@H](CCC(=O)O)NC(=O)C(C)(C)NC(=O)[C@@H](N)Cc1ccc(O)cc1)[C@@H](C)O)[C@@H](C)O)C(=O)N[C@@H](CC(C)C)C(=O)N[C@@H](CC(C)C)C(=O)N[C@@H](CCC(=O)O)C(=O)N[C@@H](CCCCNC(=O)[C@@H](N)CCCCNC(=O)[C@@H](N)CCCCNC(=O)CC[C@H](NC(=O)CCCCCCCCCCCCCCCCC(=O)O)C(=O)O)C(=O)N[C@@H](CCC(N)=O)C(=O)N[C@@H](C)C(=O)N[C@@H](C)C(=O)N[C@@H](CCCNC(=N)N)C(=O)N[C@@H](CCC(=O)O)C(=O)N[C@@H](Cc1ccccc1)C(=O)N[C@H](C(=O)N[C@@H](CC(N)=O)C(=O)N[C@@H](Cc1c[nH]c2ccccc12)C(=O)N[C@@H](CC(C)C)C(=O)N[C@@H](CC(C)C)C(=O)N[C@@H](C)C(=O)NCC(=O)NCC(=O)N1CCC[C@H]1C(=O)N[C@@H](CO)C(=O)N[C@@H](CO)C(=O)NCC(=O)N[C@@H](C)C(=O)N1CCC[C@H]1C(=O)N1CCC[C@H]1C(=O)N1CCC[C@H]1C(=O)N[C@@H](CO)C(=O)O)C(C)C [Compound 22] (H-Y[Aib]EGTFTSDYSILLEK([εLys-εLys-γGlu-C18 diacid])QAAREFVNWLLAGGPSSGAPPPS-OH)	0.0028 nM	0.171 nM	0.0062 nM	0.169 nM
CC[C@H](C)[C@H](NC(=O)[C@H](Cc1ccccc1)NC(=O)[C@H](CCC(=O)O)NC(=O)[C@H](CCCNC(=N)N)NC(=O)[C@H](C)NC(=O)[C@H](C)NC(=O)[C@H](CCC(N)=O)NC(=O)[C@H](CCC(=O)O)NC(=O)[C@H](CCC(=O)O)NC(=O)[C@H](CC(C)C)NC(=O)[C@H](CC(C)C)NC(=O)[C@@H](NC(=O)[C@H](CO)NC(=O)[C@H](Cc1ccc(O)cc1)NC(=O)[C@H](CC(=O)O)NC(=O)[C@H](CO)NC(=O)[C@@H](NC(=O)[C@H](Cc1ccccc1)NC(=O)[C@@H](NC(=O)CNC(=O)[C@H](CCC(=O)O)NC(=O)C(C)(C)NC(=O)[C@@H](N)Cc1ccc(O)cc1)[C@@H](C)O)[C@@H](C)O)[C@@H](C)CC)C(=O)N[C@@H](CCC(=O)O)C(=O)N[C@@H](Cc1c[nH]c2ccccc12)C(=O)N[C@@H](CC(C)C)C(=O)N[C@@H](CC(C)C)C(=O)N[C@@H](C)C(=O)NCC(=O)NCC(=O)N1CCC[C@H]1C(=O)N[C@@H](CO)C(=O)N[C@@H](CCCCNC(=O)[C@@H](N)CCCCNC(=O)[C@@H](N)CCCCNC(=O)CC[C@H](NC(=O)CCCCCCCCCCCCCCC(=O)O)C(=O)O)C(=O)NCC(=O)N[C@@H](C)C(=O)N1CCC[C@H]1C(=O)N1CCC[C@H]1C(=O)N1CCC[C@H]1C(=O)N[C@@H](CO)C(=O)O [Compound 46] (H-Y[Aib]EGTFTSDYSILLEEQAAREFIEWLLAGGPSK([εLys-εLys-γGlu-C16 diacid])GAPPPS-OH)	0.0015 nM	0.111 nM	0.0018 nM	0.097 nM
CC[C@H](C)[C@H](NC(=O)[C@H](Cc1ccccc1)NC(=O)[C@H](CCC(=O)O)NC(=O)[C@H](CCCNC(=N)N)NC(=O)[C@H](C)NC(=O)[C@H](C)NC(=O)[C@H](CCC(N)=O)NC(=O)[C@H](CCCCNC(=O)[C@@H](N)CCCCNC(=O)[C@@H](N)CCCCNC(=O)CC[C@H](NC(=O)CCCCCCCCCCCCCCCCC(=O)O)C(=O)O)NC(=O)[C@H](CCC(=O)O)NC(=O)[C@H](CC(C)C)NC(=O)[C@H](CC(C)C)NC(=O)[C@@H](NC(=O)[C@H](CO)NC(=O)[C@H](Cc1ccc(O)cc1)NC(=O)[C@H](CC(=O)O)NC(=O)[C@H](CO)NC(=O)[C@@H](NC(=O)[C@@H](NC(=O)[C@@H](NC(=O)CNC(=O)[C@H](CCC(=O)O)NC(=O)C(C)(C)NC(=O)[C@@H](N)Cc1ccc(O)cc1)[C@@H](C)O)C(C)C)[C@@H](C)O)[C@@H](C)CC)C(=O)N[C@@H](CC(N)=O)C(=O)N[C@@H](Cc1c[nH]c2ccccc12)C(=O)N[C@@H](CC(C)C)C(=O)N[C@@H](CC(C)C)C(=O)N[C@@H](C)C(=O)NCC(=O)NCC(=O)N1CCC[C@H]1C(=O)N[C@@H](CO)C(=O)N[C@@H](CO)C(=O)NCC(=O)N[C@@H](C)C(=O)N1CCC[C@H]1C(=O)N1CCC[C@H]1C(=O)N1CCC[C@H]1C(=O)N[C@@H](CO)C(=O)O [Compound 33] (H-Y[Aib]EGTVTSDYSILLEK([εLys-εLys-γGlu-C18 diacid])QAAREFINWLLAGGPSSGAPPPS-OH)	0.0148 nM	0.361 nM	0.0029 nM	0.103 nM
CC[C@H](C)[C@H](NC(=O)[C@H](Cc1ccccc1)NC(=O)[C@H](CCC(=O)O)NC(=O)[C@H](CCCNC(=N)N)NC(=O)[C@H](C)NC(=O)[C@H](C)NC(=O)[C@H](CCC(N)=O)NC(=O)[C@H](CCCCNC(=O)[C@@H](N)CCCCNC(=O)[C@@H](N)CCCCNC(=O)CC[C@H](NC(=O)CCCCCCCCCCCCCCCCC(=O)O)C(=O)O)NC(=O)[C@H](CCC(=O)O)NC(=O)[C@H](CC(C)C)NC(=O)[C@H](CC(C)C)NC(=O)[C@@H](NC(=O)[C@H](CO)NC(=O)[C@H](Cc1ccc(O)cc1)NC(=O)[C@H](CC(=O)O)NC(=O)[C@H](CO)NC(=O)[C@@H](NC(=O)[C@H](Cc1ccccc1)NC(=O)[C@@H](NC(=O)CNC(=O)[C@H](CCC(=O)O)NC(=O)C(C)(C)NC(=O)[C@@H](N)Cc1ccc(O)cc1)[C@@H](C)O)[C@@H](C)O)[C@@H](C)CC)C(=O)N[C@@H](CCC(N)=O)C(=O)N[C@@H](Cc1c[nH]c2ccccc12)C(=O)N[C@@H](CC(C)C)C(=O)N[C@@H](CC(C)C)C(=O)N[C@@H](C)C(=O)NCC(=O)NCC(=O)N1CCC[C@H]1C(=O)N[C@@H](CO)C(=O)N[C@@H](CO)C(=O)NCC(=O)N[C@@H](C)C(=O)N1CCC[C@H]1C(=O)N1CCC[C@H]1C(=O)N1CCC[C@H]1C(=O)N[C@@H](CO)C(=O)O [Compound 23] (H-Y[Aib]EGTFTSDYSILLEK([εLys-εLys-γGlu-C18 diacid])QAAREFIQWLLAGGPSSGAPPPS-OH)	0.0041 nM	0.118 nM	0.0067 nM	0.134 nM
